Experimental data taken from US20230142062A1, “THE APPLICATION OF ALOESIN IN THE PREPARATION OF PRODUCTS FOR PREVENTING OR TREATING OBESITY” (HAINAN MEDICAL UNIVERSITY, priority 2020, published 2023).

Assays:
Assay type in all cases: cell-based, mouse
adiponectin [1] = test: Real-time quantitative PCR, adiponectin mRNA in 3T3-L1 adipocytes; conditions: 15 μM, qPCR
PRDM16 = test: Real-time quantitative PCR, PRDM16 mRNA in 3T3-L1 adipocytes; conditions: qPCR
Method: (§1) Total RNA extraction reagent (TIANGEN, China) was used to extract total RNA from 3T3-L1 adipocytes. Use 1st strand cDNA kit (Vazyme biotechnology) for reverse transcription into cDNA. SYBR Green PCR Master Mix Kit (Monad, China) reagent and CFX-1000 Touch instrument ([…]) were used to detect the mRNA level of adipocyte browning genes (Ucp-1 and PRDM16) and transcription factors (Fabp, Ppar-γ and C-EBPα). The following conditions were used for reverse transcription: 5 min at 25° C., 15 min at 50° C., and 5 min at 85° C. Amplification: initial denaturation at 95° C. for 30 seconds, followed by denaturation at 95° C. for 5 seconds and 59° C. for 30 seconds (40 cycles). The β-actin was used as a reference gene to standardize the qPCR reaction. The relative expression of genes was calculated based on the average Ct value between samples. Relative expression level=2^{[Cttarget gene−Ct (β-actin)]aloesin treatment group−[Cttarget gene−Ct(β-actin)] 3T3-L1adipocyte]}.

3T3-L1 preadipocytes [2] = test: Differentiation of preadipocytes after aloesin pretreatment (Oil Red O staining); conditions: pretreated with 15 and 30 μM for 24 h and 48 h, then differentiated for 10 days
Method: (§2) Mouse 3T3-L1 preadipocytes were inoculated with high glucose culture medium (H-DMEM, Hyclon) containing 10% fetal bovine serum (Gibco) and antibiotics (100 U/mL penicillin G and […] streptomycin) at a density of 1×10^4 /mL in an incubator at 37° C. and 5% CO2 for 72 hours. In order to induce the differentiation of 3T3-L1 preadipocytes, when 80% cells are fused, on day 0, growth medium (GM) containing 10% fetal bovine serum, 10 μg/mL insulin (sigma), 1 μM dexamethasone (sigma), 0.5 mM isobutyl-1-Methylxanthine (sigma) was added therein. On the second day, the medium was replaced with a high-glycemic medium containing 10% calf serum and 10 μg/mL insulin. On the 10th day, a large number of lipid droplets accumulated during the differentiation of pre-adipocytes.
(§3) The differentiated adipocytes were washed 3 times with PBS, fixed with 10% formaldehyde for 1 hour, then washed 3 times with PBS again, dried for 15 to 30 minutes and stained with Oil Red O working solution for 2 hours. Wash 2 times and 3 times with 60% isopropanol (IPA) and double distilled water respectively. A Zeiss fluorescence microscope (Tokyo, Japan) was used to collect images. 100% IPA extracts Oil Red O, and the absorbance at 490 nm was measured.
3T3-L1 pre-adipocytes were pre-incubated by the aloesin with concentration of 15 and 30 μM for 24 h and 48 h, respectively. […]

3T3-L1 adipocytes = test: Lipid accumulation in 3T3-L1 adipocytes (Oil Red O staining); conditions: 15 and 30 μM
Method: as §2, §3
After 3T3-L1 preadipocytes were induced to differentiate into adipocytes, aloesin (15 and 30 μM) was added to the adipocytes and cultured for 24 h and 48 h respectively.

adiponectin [3] = test: ELISA, adiponectin in supernatant of 3T3-L1 adipocytes; conditions: 15 μM, 48 hours
Method: (§4) The 3T3-L1 adipocytes were treated with aloesin for 48 hours, then the supernatant was collected, and the levels of adiponectin and IL-1β in the supernatant were detected with an ELISA kit (Proteintech, China). The ELISA reagent operation was carried out according to the manufacturer's instructions.

FABP = test: Real-time quantitative PCR, FABP mRNA in 3T3-L1 adipocytes; conditions: 15 and 30 μM, qPCR
Method: as §1

IL-1β = test: ELISA, IL-1β in supernatant of 3T3-L1 adipocytes; conditions: 15 and 30 μM, 48 hours
Method: as §4

C-EBPα = test: Real-time quantitative PCR, C-EBPα mRNA in 3T3-L1 adipocytes; conditions: 15 and 30 μM, qPCR
Method: as §1

3T3-L1 preadipocytes [4] = test: MTT cell viability of 3T3-L1 preadipocytes; conditions: 15 and 30 μM aloesin, 24 h and 48 h
Method: as §2
Cell viability was determined by MTT, 3T3-L1 preadipocytes were seeded in 96-well plates at a density of 1×10^4 /mL, cultured in an incubator for 24 hours, and then replaced with a medium respectively containing 10, 15, 30 and 60 μM aloesin to continuously cultivate for 24 h or 48 h. 0.5% MTT was added to the cells, after incubating for 1 hour at 37° C., the MTT solution was removed, and DMSO was added to dissolve. The absorbance at 570 nm was measured using an enzyme-labeled instrument (Molecular Devices, CA, USA). Cell viability (%) is expressed as a percentage relative to untreated control cells.

PPAR-γ = test: Real-time quantitative PCR, PPAR-γ mRNA in 3T3-L1 adipocytes; conditions: 15 and 30 μM, qPCR
Method: as §1

UCP-1 = test: Real-time quantitative PCR, UCP-1 mRNA in 3T3-L1 adipocytes; conditions: qPCR
Method: as §1

Structure (SMILES): CC(=O)Cc1cc(=O)c2c(C)cc(O)c([C@@H]3O[C@H](CO)[C@@H](O)[C@H](O)[C@H]3O)c2o1 [aloesin]
- mRNA expression of adiponectin in adipocytes (adiponectin [1]): enhance
- expression of browning gene PDRM16 (mRNA) (PRDM16): increase
- differentiation of 3T3-L1 preadipocytes (3T3-L1 preadipocytes [2]): did not affect
- lipid accumulation of adipocytes (3T3-L1 adipocytes; 48 h, compared with the control group): significantly reduce
- lipid accumulation in 3T3-L1 adipocytes (3T3-L1 adipocytes; treatment for 24 hours): did not affect
- release of adiponectin in adipocytes (adiponectin [3]): enhance
- expression of FABP (mRNA) (FABP): did not affect
- release of IL-1β in adipocytes (IL-1β): reduce
- expression of the transcription factor C-EBPα (mRNA) (C-EBPα): increase
- pre-adipocytes viability (3T3-L1 preadipocytes [4]): did not influence
- expression of PPAR-γ (mRNA) (PPAR-γ): did not affect
- expression of browning gene UCP-1 (mRNA) (UCP-1): increase
